Experimental data published in patent publication US20230088774A1, “Herbicide Combinations Comprising Glufosinate and Oxadiazon” (BASF SE, priority 2020, published 2023).

What was measured:
Details in all cases: 504 h
[1] = system: Amaranthus tamariscinus (AMATA); experiment: Greenhouse post-emergence weed control, common waterhemp; type: in vivo
From the text: (§1) For post-emergence treatments, glufosinate and oxadiazon, which had been suspended in water, were applied using spray nozzles providing fine to coarse droplets.
(§2) The herbicide compounds applied in the examples were used as experimental or commercially available solo or premix formulations which have been diluted with tap water to a suitable concentration. Glufosinate was used as a commercial SL formulation containing 280 g ai/l of glufosinate (Liberty 280 SL, BASF). While the PPO herbicide Ronstar Flo containing 380 g ai/l oxadiazon was used (Ronstar Flo, Bayer) formulation.
(§3) The evaluation for plant injury or damage caused by the chemical compositions was carried out using a scale from 0-100% when compared with the untreated control plants. Here, 0 means no damage and 100 means complete destruction of the plants.
(§4) 22., E=X+Y−(X*Y/100), where
(§5) X=effect in percent using herbicide A at an application rate of a;
(§6) Y=effect in percent using herbicide B at an application rate of b;
(§7) E=expected effect (in %) of A+B at application rates a+b.
(§8) The value E corresponds to the effect (plant damage or injury) which is to be expected if the activity of the individual compounds is just additive. If the observed effect is higher than the value E calculated according to Colby, a synergistic effect is present. […]

[2] = system: Amaranthus Palmerii (AMAPA); experiment: Greenhouse post-emergence weed control, Palmer amaranth; type: in vivo, Amaranthus palmeri
From the text: as §1, §2, §3, §4, §5, §6, §7, §8

[3] = system: Lolium multiflorum (LOLMU); experiment: Greenhouse post-emergence weed control, Italian ryegrass; type: in vivo
From the text: as §1, §2, §3, §4, §5, §6, §7, §8

[4] = system: Echinochloa crus-galli (ECHCG); experiment: Greenhouse post-emergence weed control, barnyardgrass; type: in vivo
From the text: as §1, §2, §3, §4, §5, §6, §7, §8

[5] = post-emergence, read-out: Solo Glufosinate % activity

Row | Structure (SMILES) | inhibition at 327 g/ha [1, 5] [%] | inhibition at 327 g/ha [2, 5] [%] | inhibition at 327 g/ha [3, 5] [%] | inhibition at 327 g/ha [4, 5] [%] | inhibition at 0.8 g/ha ([1]; AMATA, 0.8 g ai/ha post-emergence, 1% (v/v) MSO, 21 DAT, scale 0-100% injury, read-out: Solo Oxadiazon % activity) [%] | inhibition at 0.8 g/ha ([2]; AMAPA, 0.8 g ai/ha post-emergence, 1% (v/v) MSO, 21 DAT, scale 0-100% injury, read-out: Solo Oxadiazon % activity) [%] | inhibition at 0.8 g/ha ([3]; LOLMU, 0.8 g ai/ha post-emergence, 1% (v/v) MSO, 21 DAT, scale 0-100% injury, read-out: Solo Oxadiazon % activity) [%] | inhibition at 0.8 g/ha ([4]; ECHCG, 0.8 g ai/ha post-emergence, 1% (v/v) MSO, 21 DAT, scale 0-100% injury, read-out: Solo Oxadiazon % activity) [%]
1 | CP(=O)(O)CCC(N)C(=O)O (racemic) [Glufosinate, (2RS)-2-amino-4-[hydroxy(methyl)phosphinoyl]butyric acid] | 93 | 94 | 33 | 40 |  |  |  | 
2 | CC(C)Oc1cc(-n2nc(C(C)(C)C)oc2=O)c(Cl)cc1Cl [Oxadiazon] |  |  |  |  | 28 | 27 | 28 | 30
